# Measurements reported in ChEMBL document CHEMBL1201862, “PubChem BioAssay data set” (2004).
# Counter-ions that a name gives are not always drawn.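 Exposure lasted 48 hours, with cells grown in 96-well plates and compounds tested at five concentrations. GI50: concentration for 50% inhibition of growth.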 The source made the active and inactive calls. Rule as the data show it: active = GI50 up to about 1.1 µM and inactive = higher.
# How the values were obtained:
# Assay in all cases: NCI anticancer screen, dose series, 48 h
# [1] = test system: HOP-92
# [2] = test system: ACHN
# [3] = test system: EKVX
# [4] = test system: SK-MEL-2
# [5] = test system: Malme-3M
# [6] = test system: HCT-15
# [7] = test system: SR
# [8] = test system: OVCAR-4
# [9] = test system: MOLT-4
# [10] = test system: Hs-578T
# [11] = test system: TK-10
# [12] = test system: MDA-MB-231
# [13] = test system: UO-31
# [14] = test system: IGROV-1
# [15] = test system: RXF 393
# [16] = test system: MDA-MB-435
# [17] = test system: NCI-H460
# [18] = test system: SK-MEL-28
# [19] = test system: SK-OV-3
# [20] = test system: HL-60
SMILES,GI50 [1],GI50 [2],GI50 [3],GI50 [4],GI50 [5],GI50 [6],GI50 [7],GI50 [8],GI50 [9],GI50 [10],GI50 [11],GI50 [12],GI50 [13],GI50 [14],GI50 [15],GI50 [16],GI50 [17],GI50 [18],GI50 [19],GI50 [20]
COC(=O)CNC(=O)CNC(=O)CSc1nnc(COc2ccc(Cl)cc2)n1-c1ccccc1,19.2 µM (inactive),> 100 µM (inactive),> 100 µM (inactive),19.4 µM (inactive),18.7 µM (inactive),> 100 µM,29 µM (inactive),> 100 µM (inactive),36.6 µM (inactive),23.2 µM (inactive),44.5 µM (inactive),19.1 µM (inactive),21.4 µM (inactive),17.9 µM (inactive),15.4 µM (inactive),18.7 µM (inactive),62.8 µM (inactive),25.1 µM (inactive),–,–
CN1[C@@H]2C[C@@H](OC(=O)[C@H](CO)c3ccccc3)C[C@H]1[C@@H]1O[C@@H]12 [SCOPOLAMINE HYDROBROMIDE],> 100 µM (inactive),> 100 µM (inactive),> 100 µM (inactive),> 100 µM (inactive),> 100 µM (inactive),> 100 µM,> 100 µM (inactive),> 100 µM (inactive),> 100 µM (inactive),> 100 µM (inactive),> 100 µM (inactive),> 100 µM (inactive),> 100 µM (inactive),> 100 µM (inactive),> 100 µM (inactive),> 100 µM (inactive),–,> 100 µM (inactive),> 100 µM (inactive),–
CC(C)C(C/C=C1/CC(CO)(COC(=O)C2CCCCC2)OC1=O)C(C)C (centres undefined),13.6 µM (inactive),13.3 µM (inactive),20 µM (inactive),> 100 µM (inactive),17.3 µM (inactive),21.6 µM,28 µM (inactive),19.8 µM (inactive),17.8 µM (inactive),16.7 µM (inactive),16.8 µM (inactive),17 µM (inactive),17.7 µM (inactive),19.1 µM (inactive),21.5 µM (inactive),34.7 µM (inactive),20.2 µM (inactive),18.6 µM (inactive),> 100 µM (inactive),–
O=C(CCc1ccc(O)c(O)c1)NCCc1cc(O)cc(O)c1,> 100 µM (inactive),> 100 µM (inactive),> 100 µM (inactive),> 100 µM (inactive),–,> 100 µM,> 100 µM (inactive),–,> 100 µM (inactive),> 100 µM (inactive),> 100 µM (inactive),> 100 µM (inactive),63.5 µM (inactive),> 100 µM (inactive),> 100 µM (inactive),24.8 µM (inactive),> 100 µM (inactive),> 100 µM (inactive),> 100 µM (inactive),> 100 µM (inactive)
CSc1cc(Cl)c(C)cc1S(=O)(=O)NC(=O)NNc1ccc(C)cc1,–,30.7 µM (inactive),> 100 µM (inactive),93.3 µM (inactive),> 100 µM (inactive),> 100 µM,40.2 µM (inactive),> 100 µM (inactive),43 µM (inactive),> 100 µM (inactive),–,> 100 µM (inactive),–,> 100 µM (inactive),> 100 µM (inactive),> 100 µM (inactive),> 100 µM (inactive),> 100 µM (inactive),68.9 µM (inactive),–
Cc1cn(CCCCOC(=O)NC(CCCNC(N)=O)C(=O)O)c(=O)[nH]c1=O (centres undefined),> 100 µM (inactive),> 100 µM (inactive),> 100 µM (inactive),> 100 µM (inactive),–,> 100 µM,> 100 µM (inactive),> 100 µM (inactive),> 100 µM (inactive),> 100 µM (inactive),> 100 µM (inactive),> 100 µM (inactive),> 100 µM (inactive),> 100 µM (inactive),> 100 µM (inactive),> 100 µM (inactive),> 100 µM (inactive),> 100 µM (inactive),> 100 µM (inactive),> 100 µM (inactive)
COc1ccc(CCNC(=O)Cc2ccccc2CCO)cc1OC,> 100 µM (inactive),> 100 µM (inactive),> 100 µM (inactive),> 100 µM (inactive),–,14.9 µM,> 100 µM (inactive),41.8 µM (inactive),> 100 µM (inactive),> 100 µM (inactive),> 100 µM (inactive),38.8 µM (inactive),> 100 µM (inactive),> 100 µM (inactive),> 100 µM (inactive),> 100 µM (inactive),> 100 µM (inactive),52.7 µM (inactive),> 100 µM (inactive),> 100 µM (inactive)
COc1ccc2ccc3oc(=O)c(C)cc3c2c1,> 10 µM (inactive),> 100 µM (inactive),8.32 µM (inactive),> 100 µM (inactive),> 100 µM (inactive),–,> 100 µM (inactive),> 100 µM (inactive),> 100 µM (inactive),78 µM (inactive),> 100 µM (inactive),33.9 µM (inactive),25.2 µM (inactive),> 100 µM (inactive),> 100 µM (inactive),> 100 µM (inactive),> 100 µM (inactive),> 100 µM (inactive),–,> 100 µM (inactive)
O=C(c1cc2ccccc2cc1O)N1CCCCC1,11.4 µM (inactive),38.2 µM (inactive),20.3 µM (inactive),17.3 µM (inactive),–,35.8 µM,16.7 µM (inactive),37.7 µM (inactive),15.3 µM (inactive),46 µM (inactive),> 100 µM (inactive),68.2 µM (inactive),40.5 µM (inactive),13.5 µM (inactive),51.1 µM (inactive),33.3 µM (inactive),27.7 µM (inactive),41.8 µM (inactive),42.2 µM (inactive),20.4 µM (inactive)
CC(C)=CCC[C@](C)(O[C@@H]1O[C@H](CO)[C@@H](O)[C@H](O)[C@H]1O)[C@H]1CC[C@]2(C)[C@@H]1[C@H](O)C[C@@H]1[C@@]3(C)CC[C@@H](O)C(C)(C)[C@@H]3[C@@H](O[C@@H]3O[C@H](CO)[C@@H](O)[C@H](O)[C@H]3O)C[C@]12C.C[C@@H]1O[C@@H](O[C@H]2[C@H](O[C@H]3C[C@]4(C)[C@H](C[C@H](O)[C@@H]5[C@@H]([C@@]6(C)CC[C@H](C(C)(C)O)O6)CC[C@]54C)[C@@]4(C)CC[C@H](O)C(C)(C)[C@H]34)O[C@H](CO)[C@@H](O)[C@@H]2O)[C@H](O)[C@H](O)[C@H]1O,> 100 µM (inactive),> 100 µM (inactive),> 100 µM (inactive),> 100 µM (inactive),–,> 100 µM,> 100 µM (inactive),> 100 µM (inactive),84.9 µM (inactive),> 100 µM (inactive),> 100 µM (inactive),> 100 µM (inactive),> 100 µM (inactive),> 100 µM (inactive),> 100 µM (inactive),> 100 µM (inactive),> 100 µM (inactive),> 100 µM (inactive),> 100 µM (inactive),> 100 µM (inactive)
Cc1ccc2c(O)cc(-c3cccc(Cl)c3)nc2n1,1.25 µM (inactive),0.313 µM (active),> 68.1 µM (inactive),0.0324 µM (active),0.0661 µM (active),< 0.0192 µM,0.0266 µM (active),> 62.1 µM (inactive),< 0.0229 µM (active),0.028 µM (active),> 59.8 µM (inactive),0.0537 µM (active),0.902 µM (active),0.0155 µM (active),–,< 0.01 µM (active),< 0.0204 µM (active),0.0916 µM (active),0.0411 µM (active),< 0.0169 µM (active)
O=C1C=CC(=O)c2c1cc([N+](=O)[O-])c1ccoc21,1.96 µM (inactive),1.82 µM (inactive),17.8 µM (inactive),18.4 µM (inactive),–,23.3 µM,5.37 µM (inactive),18.9 µM (inactive),0.942 µM (active),28.1 µM (inactive),2.18 µM (inactive),21.3 µM (inactive),3.01 µM (inactive),17.7 µM (inactive),1.97 µM (inactive),11.7 µM (inactive),18.2 µM (inactive),20.1 µM (inactive),20.4 µM (inactive),0.743 µM (active)
Cc1cc(C)c2c(c1)CC1(Cc3c(C)cc(C)cc3C1=O)C2=O (centres undefined),> 100 µM (inactive),> 100 µM (inactive),> 100 µM (inactive),> 100 µM (inactive),92.9 µM (inactive),> 100 µM,> 100 µM (inactive),46.3 µM (inactive),> 100 µM (inactive),> 100 µM (inactive),> 100 µM (inactive),> 100 µM (inactive),> 100 µM (inactive),84.5 µM (inactive),> 100 µM (inactive),> 100 µM (inactive),> 100 µM (inactive),> 100 µM (inactive),–,> 100 µM (inactive)
O=C(O)COc1cc(-c2ccccc2)nc2ccc(F)cc12,> 100 µM (inactive),> 100 µM (inactive),> 100 µM (inactive),> 100 µM (inactive),> 100 µM (inactive),> 100 µM,> 100 µM (inactive),> 100 µM (inactive),> 100 µM (inactive),> 100 µM (inactive),0.0261 µM (active),> 100 µM (inactive),70 µM (inactive),> 100 µM (inactive),–,> 100 µM (inactive),> 100 µM (inactive),> 100 µM (inactive),> 100 µM (inactive),> 100 µM (inactive)
